# In US9637519B2, “Peptide for inducing mast cell-specific apoptosis and use thereof” (CAREGEN CO., LTD., priority 2013, dated 2017):
# Where two headings read alike, the source gives them in different places. Ends that are not written are not given here.
# T1: FcεRI receptor (Rattus norvegicus, UniProt P12371+P13386+P20411)
# T1 construct: FcεRI receptor, which is present on surfaces of mast cells; endogenous in cells; host or cells: RBL-2H3 rat mast cell line
# T1 sequence (P12371 24-245): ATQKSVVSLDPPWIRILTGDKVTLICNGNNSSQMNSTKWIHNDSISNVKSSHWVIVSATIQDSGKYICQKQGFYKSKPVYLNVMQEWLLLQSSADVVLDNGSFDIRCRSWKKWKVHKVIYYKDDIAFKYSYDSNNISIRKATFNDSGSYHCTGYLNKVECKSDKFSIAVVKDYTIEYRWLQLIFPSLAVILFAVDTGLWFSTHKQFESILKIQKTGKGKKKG
# T1 sequence (P13386 1-243): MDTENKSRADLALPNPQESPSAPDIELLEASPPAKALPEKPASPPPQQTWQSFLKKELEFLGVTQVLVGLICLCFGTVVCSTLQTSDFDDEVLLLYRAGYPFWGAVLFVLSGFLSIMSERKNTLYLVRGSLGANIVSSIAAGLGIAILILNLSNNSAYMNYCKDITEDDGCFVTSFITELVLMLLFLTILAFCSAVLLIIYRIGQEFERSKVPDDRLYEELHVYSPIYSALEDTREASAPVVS
# T1 sequence (P20411 19-86): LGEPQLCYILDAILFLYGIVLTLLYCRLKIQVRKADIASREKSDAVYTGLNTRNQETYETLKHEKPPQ
# B1: natural semaphorin 3A protein: standard form growth factor (Semaphorin 3A) purchased from NIBSC (UK); human semaphorin 3A, SEQ ID NO: 2 (protein, listed as Homo sapiens)
# chain: MGWLTRIVCLFWGVLLTARANYQNGKNNVPRLKLSYKEMLESNNVITFNGLANSSSYHTFLLDEERSRLYVGAKDHIFSFDLVNIKDFQKIVWPVSYTRRDECKWAGKDILKECANFIKVLKAYNQTHLYACGTGAFHPICTYIEIGHHPEDNIFKLENSHFENGRGKSPYDPKLLTASLLIDGELYSGTAADFMGRDFAIFRTLGHHHPIRTEQHDSRWLNDPKFISAHLISESDNPEDDKVYFFFRENAIDGEHSGKATHARIGQICKNDFGGHRSLVNKWTTFLKARLICSVPGPNGIDTHFDELQDVFLMNFKDPKNPVVYGVFTTSSNIFKGSAVCMYSMSDVRRVFLGPYAHRDGPNYQWVPYQGRVPYPRPGTCPSKTFGGFDSTKDLPDDVITFARSHPAMYNPVFPMNNRPIVIKTDVNYQFTQIVVDRVDAEDGQYDVMFIGTDVGTVLKVVSIPKETWYDLEEVLLEEMTVFREPTAISAMELSTKQQQLYIGSTAGVAQLPLHRCDIYGKACAECCLARDPYCAWDGSACSRYFPTAKRRTRRQDIRNGDPLTHCSDLHHDNHHGHSPEERIIYGVENSSTFLECSPKSQRALVYWQFQRRNEERKEEIRVDDHIIRTDQGLLLRSLQQKDSGNYLCHAVEHGFIQTLLKVTLEVIDTEHLEELLHKDDDGDGSKTKEMSNSMTPSQKVWYRDFMQLINHPNLNTMDEFCEQVWKRDRKQRRQRPGHTPGNSNKWKHLQENKKGRNRRTHEFERAPRSV
# Assays:
# NIH3T3 cells = conditions: NIH3T3 fibroblasts; 1 and 10 μg/ml; 27 h; MTT
# Procedure: (§1) Meanwhile, in order to investigate whether or not the apoptosis effect is a mast cell-specific reaction, the cytotoxicity test was conducted using HaCaT cells as keratinocytes and NIH3T3 cells as fibroblasts. The cells were placed in a 96-well plate for tissue culture at 5×10^3 cells per well, and then cultured for 24 h under conditions of 37° C. and 5% CO2. After 24 h, the medium was exchanged with the same culture liquid. A blank sample for determining a reference and the synthetic peptide were dissolved in 10% distilled water in a sterile state, followed by culturing at concentrations of 1 μg/ml and 10 μg/ml for 27 h under the same conditions as above. After the completion of the culture, the culture liquid was treated with MTT reagent (5 mg/ml; SIGMA, USA) with 1/10 volume and further cultured for 4 h, and the generated formazan was dissolved in DMSO and the absorbance was measured at 540 nm using a spectrophotometer (Molecular devices, USA) (see FIG. 2c).
# HaCaT cells = conditions: HaCaT human keratinocytes; 1 and 10 μg/ml; 27 h; MTT
# Procedure: as §1
# FcεRI receptor = molecular target: T1, FcεRI receptor; test: Immunoprecipitation with IgE antibody and western blotting of FcεRI gamma sub-chain (receptor complex formation); type: cell-based; conditions: IgE-sensitized cells; peptide 10 μg/ml; HSA stimulation 10 min
# Procedure: After the first separation using immunoprecipitation, western blotting was conducted using FcεRI gamma sub-chain antibody to confirm the protein amount of the gamma sub-chains binding to IgE (see FIG. 4c).
# [1] = tested on: RBL-2H3 rat mast cell lines; conditions: 10 μg/ml treatment group, 27 h
# Procedure: First, RBL-2H3 rat mast cell lines (Korean Cell Line Bank, Korea) were cultured in Dulbecco's modified Eagle's medium (DMEM, Gibco, U.S.A.) supplemented with 10% fetal bovine serum (FBS, Sigma) using a flask for tissue culture (SPL, Korea). The cultured cell lines were detached from the bottom of the culture container using a 1% trypsin solution, and then only cell deposits were collected by centrifugation. The cell deposits were again suspended in DMEM culture liquid, placed in each well of a 6-well plate for tissue culture (SPL, Korea) at 1×10^5 cells per well, and then cultured for 24 h under conditions of 37° C. and 5% CO2. After 24 h, the medium was exchanged with the same culture liquid. […] After the completion of the culture, the culture supernatant fluid was removed, the cultured cell lines were detached from the bottom of the culture container using a 1% trypsin solution, and then only cell precipitates were collected by centrifugation. The cells were stained using an Annexin V-PI staining kit (BD pharmigen), and then FL1 and FL2 intensities were measured using flow cytometry, FACS. Annexin V-positive apoptotic cells were counted (see FIG. 2a).
# p38 = conditions: IgE-sensitized cells; peptide 10 μg/ml 20 min; HSA 1 μg/ml 5 or 30 min
# Procedure: (§2) The cells were placed in a 60 mm-sized plate for culture (SPL, Korea) at 1.5×10^6 cells per well, and then cultured for 24 h under conditions of 37° C. and 5% CO2. After that, the cells were treated with IgE (1 μg/ml) for 24 h for cell sensitization, and then a blank sample for determining a reference and the synthetic peptide were dissolved in 10% distilled water in a sterile state, followed by treatment with a concentration of 10 μg/ml for 20 min, and then the cells were stimulated by treatment with 1 μg/ml allergen HSA for 5 min or 30 min.
# ERK1/2 = conditions: IgE-sensitized cells; peptide 10 μg/ml 20 min; HSA 1 μg/ml 5 or 30 min
# Procedure: as §2
# [2] = Thermal stability at 37° C. in phosphate buffered saline, HPLC quantification; type: physicochemical; conditions: 0.1 mg/ml in PBS, days 0-70 (FIG. 5)
# Procedure: 1 ml of the prepared solution was placed in each glass vial, and allowed to stand at 37° C. The solution standing at 37° C. was sampled on days 0, 5, 10, 20, 30, 50, and 70. Centrifugation for each day was conducted to remove modified peptides or proteins, and the supernatant was taken. HPLC was used for quantification (see FIG. 5).
# Bcl2 = conditions: 1 and 10 μg/ml, 27 h
# Lyn = conditions: IgE-sensitized cells; peptide treatment 20 min; HSA 1 μg/ml
# RBL-2H3 cells = test: Histamine secretion from IgE/HSA-stimulated mast cells (histamine ELISA); type: cell-based, rat; conditions: IgE 1 μg/ml sensitized, HSA 1 μg/ml stimulated
# Procedure: In the culture of RBL-2H3 cells sensitized by IgE treatment (1 μg/ml) for 16 h, the existing culture medium was removed and exchanged with a tyrode buffer. […] In addition, in order to measure the activity of beta-hexosaminidase, the degree of color development after a reaction with a substrate, p-N-acetyl-glucosamine (NAG; SIGMA, USA) was determined by measuring the absorbance at 405 nm using a spectrophotometer (see FIG. 3b).
# [3] = activated mast cells (IgE and HSA treatment)
Molecule,cytotoxicity (NIH3T3 cells),cytotoxicity (HaCaT cells),complex formation of FcεRI receptor (gamma sub-chains binding to IgE) (FcεRI receptor),"Annexin V-positive cell count (apoptosis) [1, 3]",Annexin V-positive cell count (apoptosis) ([1]; inactivated mast cells),phosphorylation of p38 (p38),phosphorylation of ERK1/2 (ERK1/2),thermal stability [2],expression level of Bcl2 (Bcl2; [3]),expression level of Bcl2 (Bcl2; inactivated mast cells),phosphorylation of Lyn (Lyn),secretion amount of histamine (RBL-2H3 cells; peptide 1 and 10 μg/ml),secretion amount of histamine (RBL-2H3 cells; positive control 40 μM)
WVPYQARVPYPR [peptide of the present invention],did not exhibit cytotoxicity,did not exhibit cytotoxicity,significantly inhibit the complex formation,increased the Annexin V-positive cell count,increased the Annexin V-positive cell count,efficacy of inhibiting the phosphorylation,efficacy of inhibiting the phosphorylation,very excellent thermal stability,reduce the expression level of Bcl2,reduce the expression level of Bcl2,significantly inhibited in a concentration-dependent manner,activity to reduce the secretion amount of histamine in a concentration-dependent manner,–
"O=c1c(O)c(-c2ccc(O)c(O)c2)oc2cc(O)cc(O)c12 [quercetin, reference compound]",–,–,–,–,–,–,–,–,–,–,–,–,reduces the secretion amount of histamine
B1,–,–,–,–,–,–,–,low stability at the time of storage for a long period of time,–,–,–,–,–
